Results as given in patent US6608048B2, “Tricyclic protein kinase inhibitors” (Wyeth Holdings, priority 2000, dated 2003).
Blank lines part the entries; values can stand above or below the compound they belong to.

How the values were obtained:
[1] = system: Human epidermoid tumors (A431); assay: In vivo inhibition of the growth of human epidermoid tumors (A431); conditions: for S/T (# of Survivors/# of Treated): Day +21 post tumor staging
Protocol: BALB/c nu/nu female mice (Charles River, Wilmington, Mass.) were used in the in vivo standard pharmacological test procedures. Human epidermoid carcinoma cells A-431 (American Type Culture Collection, Rockville, Md. #CRL-155) were grown in vitro as described above. A unit of 5×10^6 cells were injected subcutaneously into mice. When tumors attained a mass of between 100 and 150 mg, the mice were randomized into treatment groups (day zero). Mice were treated orally (PO) once a day on days 1 through 10 post staging with doses of either 40, 20, 10, 3 or 1 mg/kg/dose of the compound to be evaluated in 0.2% Klucel. Control animals received no drug. Tumor mass was determined every 7 days [(length×width^2)/2] for 28 days post staging. Relative tumor growth (Mean tumor mass on day 7, 14, and 21 divided by the mean tumor mass on day zero) is determined for each treatment group. The % T/C (Tumor/Control) is determined by dividing the relative tumor growth of the treated group by the relative tumor growth of the placebo group and multiplying by 100. A compound is considered to be active if the % T/C is found to be=42%.

[2] = target: T1, EGF-R Kinase (recombinant enzyme) (Homo sapiens, UniProt P00533); assay: Inhibition of Epidermal Growth Factor Receptor Kinase (EGF-R) using recombinant enzyme; format: biochemical; conditions: RR-SRC peptide substrate
T1 construct: containing the EGFR cDNA encoding amino acids 645-1186 preceded by Met-Ala-(Ris)6; made in house; host or cells: Sf9 insect cells, recombinant baculovirus vHcEGFR52
T1 sequence (P00533 669-1210): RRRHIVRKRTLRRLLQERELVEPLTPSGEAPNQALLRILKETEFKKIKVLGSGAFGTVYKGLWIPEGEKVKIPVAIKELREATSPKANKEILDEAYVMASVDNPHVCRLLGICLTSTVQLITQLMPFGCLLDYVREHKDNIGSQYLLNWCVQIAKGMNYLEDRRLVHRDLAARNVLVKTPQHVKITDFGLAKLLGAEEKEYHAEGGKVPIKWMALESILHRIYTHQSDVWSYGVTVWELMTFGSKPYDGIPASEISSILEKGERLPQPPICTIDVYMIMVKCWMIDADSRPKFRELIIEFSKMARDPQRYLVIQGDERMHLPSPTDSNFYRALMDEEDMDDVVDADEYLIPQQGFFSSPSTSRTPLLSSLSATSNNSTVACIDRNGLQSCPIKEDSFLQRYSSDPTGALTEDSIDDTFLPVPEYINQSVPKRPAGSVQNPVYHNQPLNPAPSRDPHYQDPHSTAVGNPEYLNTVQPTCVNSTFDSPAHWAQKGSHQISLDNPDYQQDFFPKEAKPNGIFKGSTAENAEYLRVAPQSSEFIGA
Protocol: Representative test compounds were evaluated for their ability to inhibit the phosphorylation of the tyrosine residue of a peptide substrate catalyzed by the enzyme epidermal growth factor receptor kinase. […] The enzyme used in this assay is the His-tagged cytoplasmic domain of EGFR. […] A cytoplasmic extract was prepared using 1% Triton X-100 and applied to Ni-NTA column.
Test compounds were made into 10 mg/mL stock solutions in 100% dimethylsulfoxide (DMSO).
The IC50 is the concentration of test compound needed to reduce the total amount of phosphorylated substrate by 50%. The % inhibition of the test compound was determined for at least three different concentrations and the IC50 value was evaluated from the dose response curve.
CPM(control) is in units of counts per minute and was a number expressing the amount of radiolabeled ATP (γ-^33P) incorporated into the RR-SRC peptide substrate by the enzyme after 90 minutes at room temperature in the absence of test compound as measured by liquid scintillation counting. The CPM values were corrected for the background counts produced by ATP in the absence of the enzymatic reaction.

melting point: 244 to 245 °C
Compound: N#Cc1cnc2cc3c(cc2c1Nc1ccc(F)c(Cl)c1)NCCO3 [Example 7, 9-(3-Chloro-4-fluoroanilino)-2,3-dihydro-1H-[1,4]oxazino[3,2-g]quinoline-8-carbonitrile]

melting point: 254 to 255 °C
Compound: N#Cc1cnc2cc3c(cc2c1Nc1ccc(Cl)cc1Cl)OCCN3 [Example 22, 9-(2,4-Dichloroanilino)-3,4-dihydro-2H-[1,4]oxazino[2,3-g]quinoline-8-carbonitrile]

More lines, now with the values behind:

Compound: CN(C)C/C=C/C(=O)N1CCOc2cc3ncc(C#N)c(Nc4ccc(F)c(Cl)c4)c3cc21 [Example 9, 9-(3-Chloro-4-fluoroanilino)-1-[(2E)-4-(dimethylamino)-2-butenoyl]-2,3-dihydro-1H-[1,4]oxazino[3,2-g]quinoline-8-carbonitrile]
S/T (# of Survivors/# of Treated) ([1]; 1 mg/kg/dose PO, days 1 through 10): 5/5
S/T (# of Survivors/# of Treated) ([1]; 3 mg/kg/dose PO, days 1 through 10): 5/5
RTG (relative tumor growth) Day 21 ([1]; 10 mg/kg/dose PO, days 1 through 10, Day 21): 11.09
S/T (# of Survivors/# of Treated) ([1]; 10 mg/kg/dose PO, days 1 through 10): 5/5
S/T (# of Survivors/# of Treated) ([1]; 20 mg/kg/dose PO, days 1 through 10): 5/5
S/T (# of Survivors/# of Treated) ([1]; 40 mg/kg/dose PO, days 1 through 10): 5/5
inhibition of tumor growth in vivo (in words) ([1]; A431 tumors in mice, PO): effective inhibitor of tumor growth in vivo

Compound: CN(C)CCCC(=O)N1CCOc2cc3ncc(C#N)c(Nc4ccc(F)c(Cl)c4)c3cc21 [Example 10, 9-(3-Chloro-4-fluoroanilino)-1-[4-(dimethylamino)butanoyl]-2,3-dihydro-1H-[1,4]oxazino[3,2-g]quinoline-8-carbonitrile]
IC50 [2]: 0.2 µM
melting point: 165 °C

Compound: N#Cc1cnc2cc3c(cc2c1Nc1ccc(F)c(Cl)c1)N(CCCCCl)CCO3 [Example 11, 1-(4-Chlorobutyl)-9-(3-chloro-4-fluoroanilino)-2,3-dihydro-1H-[1,4]oxazino[3,2-g]quinoline-8-carbonitrile]
melting point: 78 to 79 °C

Compound: CN(C)CCCCN1CCOc2cc3ncc(C#N)c(Nc4ccc(F)c(Cl)c4)c3cc21 [Example 12, 9-(3-Chloro-4-fluoroanilino)-1-[4-(dimethylamino)butyl]-2,3-dihydro-1H-[1,4]oxazino[3,2-g]quinoline-8-carbonitrile]
IC50 [2]: 0.005 µM
melting point: 105 °C

Compound: CCN1CCN(CCCCN2CCOc3cc4c(Nc5ccc(Cl)cc5Cl)c(C#N)cnc4cc32)CC1 [Example 24, 9-(2,4-Dichloroanilino)-4-[4-(4-ethyl-1-piperazinyl)butyl]-3,4-dihydio-2H-[1,4]oxazino[2,3-g]quinoline-8-carbonitrile]
melting point: 97 to 98 °C
